Assay results: patent US6342187B1, “Process and apparatus for dry sterilization of medical devices and materials” (priority 1987, dated 2002)
“And” between values parts separate entries of the source, which are not always exact repeats. Identical values can stand only once. Like-named read-outs stand apart in the source and are kept apart here.

Legend:
Format in all cases: cell-based
[1] = tested on: Bacillus Subtilis var Niger; settings: for vials with total kill, of ten Attest vials: Pyrex chamber, cooled cylinder, 0.280-0.300 torr, 38-57° C., moist = H2O 300 ppm
From the text: However, for each of the examples the general technique involved was one in which the material to be sterilized was placed directly in the reaction chamber, or placed within a Tyvek/polyethylene pouch which itself was sealed and placed in a wire basket within the reaction chamber.
The materials used for verification of sterilization effectiveness were “Attest” vials obtained from 3M Company, or “Spordex” bacterial test strips obtained from the American Sterilizer Company, each vial or “Spordex” envelope contained a bacterial strip having an original spore population of not less than 1×10^6 Bacillus Subtilis var Niger per strip, but more commonly in the range 2.2-4.0×10^6 spores/strip. The strips contained the permeable plastic vials were not brought into contact with the culture solution contained in any of the vials prior to sterilization. The vials were placed within the Tyvek/polyethylene bags during the plasma sterilization, alongside devices or instruments to be sterilized. The bags were always sealed during the sterilization process.
For each example the chamber was first evacuated to an initial low pressure level after the materials (in the bags or pouches) were placed within it. The chamber was thereafter filled with the appropriate gas prior to striking the discharge, and the gas continued to flow through the chamber at a controlled rate to establish a steady state sterilization pressure. The discharge was initiated by the application of RF or microwave power as indicated. The discharge was maintained for a controlled time period at the end of which the power was turned off, the chamber was first evacuated, then backfilled with air through a bacteria retentive filter, and later opened and the samples removed. The temperature within the chamber during the process was maintained at less than 70° C., and more typically around 25° C. to 65° C., as sensed by an iron-constantan, type “J”, thermocouple circuitry and monitored by an analog temperature meter.
Subsequent to the tests, the spore strips in the “Attest” vials where brought into contact with the self-contained culture solution and incubated for 72 hr, at the end of which period microorganism growth or no growth would be indicated by the resultant color of the culture solution. Alternatively, the spore strips were submitted to an independent testing laboratory which performed a total plate count on the sample strips using a procedure in which 100 milliliters of sterile deionized water were added to each strip in a sterile whirl-pak bag. The bag was then placed in a lab blender for 10 minutes. One 10 milliliter aliquot of sample, a duplicate one milliliter sample, and two consecutive 10^−1 dilutions were plated using Tryptic Soy Agar. The plates were then incubated at 30-35° C. for 72 hours. After incubation, the plates were read and recorded, and the results calculated on a Colony Forming Unit (CFU) basis.

[2] = tested on: biological indicator organism; experiment: Example 21 designed experiments, modified AAMI EO test packs, log reduction (organism not specified); settings: Example 21, mean over designed experiments; both precursors vaporized at 74° C.; 40 kHz, 5 kW
Description: AAMI EO Test Packs: Modified AAMI Standard EO packs were prepared in which the BI strip was removed from its glassine wrap before processing. Three strips were placed in each syringe, and the syringe was closed at its large end with the standard rubber stopper. A second syringe was prepared containing one MDT Biosign CLBI (results reported as fractional negative). The syringes were placed adjacent to one another and were wrapped in a huckabuck towel per the AAMI EO Test Pack standard. The entire assembly was placed in a Baxter ‘Tower Dual-Peel’ 7.5″×13″ paper-plastic peel pouch, which was subsequently heat sealed.
Statistical Design of Experiments: This example is based upon both Taguchi and Greco-Latin Square experimental designs in accordance with standard statistical design of experiment techniques [CSS:Statistica, StatSoft, Tulsa, Okla. ]. These experimental designs permitted variation of four parameters over four discrete levels (Greco-Latin Square) or five parameters over four discrete levels (Taguchi L′16 design). The resultant data, reported as log reduction, is analyzed to provide mean values for each of the parameters at each parameter level. Also provided are ANOVA and correlation results (for reduction vs. exposure time), which evaluate the statistical validity of the data. […]

[3] = tested on: Bstm; experiment: Example 22 direct comparison of sterilant precursors, AAMI standard EO test packs; settings: Example 22: 45 min plasma, 40 kHz, 5 kW, 600 microns; 30 min preconditioning; base pressure 100 microns; Bstm 10^6 spores; peracetic acid vaporized at 60° C., hydrogen peroxide at 74° C.
Description: A direct comparison of 15% peracetic acid and 70% hydrogen peroxide sterilant precursors was made by exposing AAMI standard EO test packs for 45 minutes to plasma induced by 40 kHz excitation frequency with 5 kW RF power. […] No glassine was used on the BI strips (Bstm, 10^6 spore population, MDT lot 601).

With `N#N` [Dry N2, Nitrogen] the “vials with total kill, of ten Attest vials” value (“vials with total kill” for short) ([1]; Example 18: exposure 30 min, 100 scc/min, 0.020 W/cc) was 0 vials - total kill, the “vials with total kill” value ([1]; Example 18: exposure 45 min, 100 scc/min, 0.020 W/cc) was 0 vials - total kill and the “vials with total kill” value ([1]; Example 18: exposure 60 min, 100 scc/min, 0.020 W/cc) was 1 vial - total kill vials. The “vials with total kill” value ([1]; Example 18: exposure 75 min, 100 scc/min, 0.020 W/cc) was 2 vials - total kill.

In the case of `O=O` [O2, Oxygen], the Percent Kill [1] is reported as 99.9999%, the “Percent Kill (%)” value [1] is reported as 77.6923% and 99.9999% and the “Resultant Microbial Count (CFUs)” value [1] is reported as 5.8 × 10^5 CFUs and <10 CFUs. The Resultant microbial count [1] was under 10 CFU, the Percent Kill ([1]; Example 2: metal chamber, cooled perforated cylinder (FIG. 4), 20 scc/min, 0.30 torr, 0.050 W/cm^3, 60 min, 32° C.) was “Total kill” and the Percent Kill ([1]; Example 4: metal chamber, two uncooled perforated cylinders (FIG. 6), 20 scc/min, 0.30 torr, 0.050 W/cm^3, 60 min, 76° C.) was “Total kill”. The Percent Kill ([1]; Example 8: Pyrex chamber, cooled perforated cylinder (FIG. 1), 25 scc/min, 0.30 torr, 0.015 W/cm^3, 30 min, 26° C.) was “Total kill”, the Percent Kill ([1]; Example 9: Pyrex chamber, uncooled perforated cylinder (FIG. 1), 25 scc/min, 0.30 torr, 0.015 W/cm^3, 30 min, 83° C.) was “Total kill” and the “Percent Kill” value ([1]; Example 12: Pyrex chamber, two uncooled perforated cylinders, 70 scc/min, 0.275 torr, 0.016 W/cc, 45 min, 92° C., AAMI standard sterilization test pack) was “Total Kill”. For the same compound, the “Percent Kill” value ([1]; Example 13: Pyrex chamber, two cooled perforated cylinders, conditions as Example 12, 54° C., AAMI test pack) was “Total Kill”, the “Percent Kill” value ([1]; Example 14: Pyrex chamber, uncooled perforated cylinder, 70 scc/min, 0.275 torr, 0.014 W/cc, 30 min, 85° C.) was “Total Kill” and the “Percent Kill” value ([1]; Example 15: Pyrex chamber, cooled perforated cylinder (FIG. 1), conditions as Example 14, 47° C.) was “Total Kill”. For the same compound, the “Percent Kill” value ([1]; Example 16: Pyrex chamber, cooled perforated cylinder (FIG. 1), conditions as Example 14, exposure 2¼ hr, 51° C.) was “Total Kill” and the “Percent Kill” value ([1]; Example 19: spore strip in middle of 24-inch PVC or silicone rubber tubing, in sealed pouch, 100 scc/min, 0.280 torr, 0.020 W/cc, 70-105 min, 50° C.) was “Total Kill”.

Work on `CC(=O)OO` [15% peracetic acid, peracetic acid] yielded a mean log reduction [2] of 2.8 log reduction and a mean log reduction [3] of 5.57.

In the case of `OO` [70% hydrogen peroxide, hydrogen peroxide], the mean log reduction [2] is reported as 3.1 log reduction and the mean log reduction [3] is reported as 5.43.
